The source of these data is patent publication US8114865B2, “Indazole derivatives as kinase inhibitors for the treatment of cancer” (Nerviano Medical Sciences S.R.L., priority 2006, dated 2012).

Molecules are shown by their SMILES.

The subject of assay [1] is IGF1-induced S6 phosphorylation. As to the kind of experiment: Growth factor induced S6 ribosomal protein phosphorylation in primary human fibroblasts. The note with it: normal human dermal fibroblasts (NHDF), 10 nM IGF-1. It counts as cell-based. The method, then: Phosphorylation of S6 ribosomal protein in response to growth factor stimulation of normal human dermal fibroblasts (NHDF) was used to assess compound potency in inhibiting IGF-1 induced signal transduction in cells, and selectivity towards EGF and PDGF stimulus. NHDF cells obtained from PromoCell (Heidelberg, Germany), were maintained at 37° C. in a humidified atmosphere with 5% CO2 in complete Fibroblast Growth Medium (PromoCell). For assay, NHDF were seeded in 384-well tissue culture plates (clear- and flat-bottomed black plates; Matrix Technologies Inc., Hudson, N.H., USA) at a density of 5000 cells/well in serum-free medium containing 0.1% bovine serum albumin (BSA) and incubated for 5 days. Starved cells were treated for 1 hour with desired doses of compounds and then stimulated for a further 2 hours with either 10 nM IGF-1 (Invitrogen Corp., CA, USA), 10 nM EGF (Gibco BRL, USA) or 1 nM PDGF-B/B (Roche Diagnostics GmbH, Germany). Cells were then fixed in PBS/3.7% paraformaldehyde for 20 minutes at room temperature, washed ×2 with PBS, and permeabilized with PBS/0.3% Triton X-100 for 15 minutes. Wells were then saturated with PBS/1% non-fat dry milk (Bio-Rad Laboratories, Hercules, Calif., USA) for 1 hour, and then probed for 1 hour at 37° C. with anti-phospho-S6 (Ser 235/236) antibody (Cell Signaling Technology, Beverly, Mass., USA, cat. #2211) at 1/200 dilution in PBS/1% milk/0.3% Tween 20. Wells were then washed twice with PBS, and incubated for 1 hour at 37° C. with PBS/1% milk/0.3% Tween 20+1 microg/mL DAPI (4,6-diamidino-2-phenylindole)+ 1/500 Goat anti-rabbit Cy5™-conjugated secondary antibody (Amersham Biosciences, Little Chalfont, Buckinghamshire, UK). […] Fluorescence images in the DAPI and Cy5™ channels were automatically acquired, stored and analysed using a Cellomics ArrayScan™ IV instrument (Cellomics, Pittsburgh, USA); the Cellomics Cytotoxicity Algorithm was used to quantify cytoplasmic fluorescence associated with phospho-S6 (Cy5™ signal parameter: “Mean Lyso Mass-pH”) for each cell in 10 fields/well, and eventually expressed as a mean population value. […]

The target of another assay is IGF-1R (Homo sapiens, UniProt P08069). As to the kind of experiment: Western blot analysis of receptor phosphorylation following stimulation with IGF-1 in MCF-7 human breast cancer cells. It counts as cell-based. Details: endogenous in cells; host or cells: MCF-7 (ATCC# HTB-22). The note with it: starved MCF7 cells, 10 nM IGF1, increasing concentrations of compound, FIG. 1. The protocol: [formula] where νb is the baseline velocity, v is the observed reaction velocity, vo is the velocity in the absence of inhibitors, and [I] is the inhibitor concentration. Cell-Based Assays for Inhibitors of IGF-1R Kinase Activity Western Blot Analysis of Receptor Phosphorylation Following Stimulation with IGF-1 in MCF-7 Human Breast Cancer Cells
Sequence of IGF-1R (P08069 31-1367): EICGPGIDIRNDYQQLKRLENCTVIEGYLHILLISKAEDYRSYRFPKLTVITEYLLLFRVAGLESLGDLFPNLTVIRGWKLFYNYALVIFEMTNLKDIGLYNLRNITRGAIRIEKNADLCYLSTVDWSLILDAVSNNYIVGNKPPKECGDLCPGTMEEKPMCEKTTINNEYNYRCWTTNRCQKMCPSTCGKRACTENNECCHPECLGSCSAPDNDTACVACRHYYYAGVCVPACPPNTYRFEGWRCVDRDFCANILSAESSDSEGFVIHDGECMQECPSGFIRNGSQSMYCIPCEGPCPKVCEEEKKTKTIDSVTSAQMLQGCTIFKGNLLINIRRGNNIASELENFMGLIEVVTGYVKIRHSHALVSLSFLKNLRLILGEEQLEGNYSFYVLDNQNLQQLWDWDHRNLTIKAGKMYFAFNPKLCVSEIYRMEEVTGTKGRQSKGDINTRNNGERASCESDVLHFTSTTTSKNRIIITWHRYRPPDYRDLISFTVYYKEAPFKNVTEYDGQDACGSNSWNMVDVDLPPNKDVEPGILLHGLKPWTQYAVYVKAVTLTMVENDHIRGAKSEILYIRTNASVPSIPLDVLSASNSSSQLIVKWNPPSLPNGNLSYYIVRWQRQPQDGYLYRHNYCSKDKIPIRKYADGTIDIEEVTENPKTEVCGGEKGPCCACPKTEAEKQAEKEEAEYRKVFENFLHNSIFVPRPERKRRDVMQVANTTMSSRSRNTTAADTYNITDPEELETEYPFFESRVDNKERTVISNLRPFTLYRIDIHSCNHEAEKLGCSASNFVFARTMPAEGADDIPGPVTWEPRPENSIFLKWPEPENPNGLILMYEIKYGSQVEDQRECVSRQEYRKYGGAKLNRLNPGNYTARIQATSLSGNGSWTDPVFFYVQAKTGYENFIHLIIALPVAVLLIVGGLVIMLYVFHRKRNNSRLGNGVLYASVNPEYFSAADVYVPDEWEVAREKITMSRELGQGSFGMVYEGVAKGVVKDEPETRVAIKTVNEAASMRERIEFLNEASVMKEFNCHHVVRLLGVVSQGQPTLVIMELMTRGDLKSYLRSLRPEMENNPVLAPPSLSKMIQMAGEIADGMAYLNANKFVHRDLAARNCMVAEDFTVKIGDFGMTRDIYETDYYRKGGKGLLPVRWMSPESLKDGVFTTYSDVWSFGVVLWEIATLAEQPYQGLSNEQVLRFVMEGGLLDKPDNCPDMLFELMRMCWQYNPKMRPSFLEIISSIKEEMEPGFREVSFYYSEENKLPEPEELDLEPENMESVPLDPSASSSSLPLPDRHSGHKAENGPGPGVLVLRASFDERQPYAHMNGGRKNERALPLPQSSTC
MCF-7 cells (ATCC# HTB-22) were seeded in 12-well tissue culture plates at 2×10^5 cells/well in E-MEM medium (MEM+Earle's BSS+2 mM glutamine+0.1 mM non-essential amino acids)+10% FCS, and incubated overnight at 37° C., 5% CO2, 100% relative humidity. Cells were then starved by replacing E-MEM+10% FCS with E-MEM+0.1% BSA, and incubating overnight. After this incubation, wells were treated with desired concentrations of compound for 1 hour at 37° C., and were then stimulated with 10 nM recombinant human IGF-1 (Invitrogen, Carlsbad, Calif., USA) for 10 minutes at 37° C. Cells were then washed with PBS and lysed in 100 microL/well cell lysis buffer (M-PER Mammalian Protein Extraction Reagent [Product #78501, Pierce, Rockford, Ill., USA]+10 mM EDTA+Protease inhibitor cocktail [Sigma-Aldrich product #P8340]+phosphatase inhibitor cocktail [Sigma-Aldrich products #P2850+#P5726]). Cell lysates were cleared by centrifugation at 10,000×g for 5 minutes, and 10 microg/lane of cleared lysate protein were run on NuPAGE gels (NuPAGE 4-12% 10-lane Bis-Tris gels, Invitrogen) with MOPS running buffer, then transferred onto Hybond-ECL nitrocellulose filters (Amersham Biosciences, Little Chalfont, Buckinghamshire, UK) using Mini PROTEAN II chambers (Bio-Rad Laboratories, Hercules, Calif., USA). […]
In general terms: A western blot detects proteins with antibodies after separation by electrophoresis.

Another assay addresses T1, Aurora-2 (Homo sapiens, UniProt O14965).
T1 sequence (O14965 1-403): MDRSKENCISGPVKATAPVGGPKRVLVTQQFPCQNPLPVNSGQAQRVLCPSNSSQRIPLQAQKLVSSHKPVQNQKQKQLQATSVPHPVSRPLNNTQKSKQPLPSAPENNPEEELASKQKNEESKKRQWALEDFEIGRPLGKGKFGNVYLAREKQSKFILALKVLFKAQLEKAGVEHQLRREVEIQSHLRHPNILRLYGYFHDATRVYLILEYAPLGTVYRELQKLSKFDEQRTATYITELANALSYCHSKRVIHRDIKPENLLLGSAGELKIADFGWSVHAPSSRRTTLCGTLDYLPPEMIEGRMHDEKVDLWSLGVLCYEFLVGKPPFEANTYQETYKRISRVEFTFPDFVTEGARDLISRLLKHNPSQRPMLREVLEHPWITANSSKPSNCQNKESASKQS
As to the kind of experiment: Biochemical assay for inhibitors of Aurora-2 kinase activity. The conditions noted are these: read-out: Aur2 IC50. The protocol:
The in vitro kinase inhibition assay was conducted mimilarly as described for IGF-1R.
The kinase buffer was composed of 50 mM HEPES, pH 7.0, 10 mM MgCl2, 1 mM DTT, 3 microM Na3VO4, and 0.2 mg/mL BSA.
The kinase assay was run with an enzyme concentration of 2.5 nM, 10 microM ATP, 1 nM ^33P-γ-ATP, and 8 microM substrate, composed of 4 LRRWSLG repeats.

For orientation: IC50 means the concentration at which inhibition is half-maximal. In the case of `CN1CCN(c2ccc(C(=O)Nc3n[nH]c4ccc(S(=O)(=O)c5ccccc5)cc34)cc2)CC1` [Compound 1, N-(5-Benzenesulfonyl-1H-indazol-3-yl)-4-(4-methyl-piperazin-1-yl)-benzamide], the values for the IC50 (in assay [1]; on Aurora-2) were greater than 10000 nM and 26 nM, respectively. The “inhibition of IGF1-induced IGF1R auto-phosphorylation” value (“inhibition” for short) against IGF-1R is listed as “inhibition of IGF1-induced IGF1R auto-phosphorylation”.

Consider `CN1CCN(c2ccc(C(=O)Nc3n[nH]c4ccc(S(=O)(=O)c5ccccc5)cc34)c(NC(=O)c3ccc[nH]3)c2)CC1` [Compound 33, 1H-pyrrole-2-carboxylic acid [2-(5-benzenesulfonyl-1H-indazol-3-ylcarbamoyl)-5-(4-methyl-piperazin-1-yl)-phenyl]amide], for which the IC50 in assay [1] amounted to 270 nM; at Aurora-2 it was 9 nM. Besides, the “inhibition” value against IGF-1R is recorded as “inhibition of IGF1-induced IGF1R auto-phosphorylation”.

As for `CN1CCN(c2ccc(C(=O)Nc3n[nH]c4ccc(S(=O)(=O)c5ccccc5)cc34)c(NC(=O)[C@@H]3CCCO3)c2)CC1` [Compound 36, (S)-Tetrahydro-furan-2-carboxylic acid [2-(5-benzenesulfonyl-1H-indazol-3-ylcarbamoyl)-5-(4-methyl-piperazin-1-yl)-phenyl]-amide], the values for the half-maximal inhibitory concentration (IC50) (in assay [1]; on Aurora-2) were 1200 nM and 19 nM, respectively. Besides, on IGF-1R, the “inhibition” value is “inhibition of IGF1-induced IGF1R auto-phosphorylation”.
